Assay [1] addresses full-length human recombinant BTK (Homo sapiens (Human), UniProt Q06187). The experiment in a line: Inhibition of Btk enzymatic activity (biochemical enzyme assay, Caliper). The note with it: 6.4 nM enzyme solution, 164 μM ATP solution, 30° C., 60 minutes. Here is the method: The inhibitory activity of the present compounds against Btk was assessed in a biochemical enzyme assay. […] The assay plates were prepared by addition of 50 nl per well of compound solution in 90% DMSO. […] Kinase reactions were analyzed on a Caliper LC3000 workstation by separating phosphorylated and unphosphorylated peptides and kinase activities were calculated from the amounts of newly formed phospho-peptide.

Assay [2] addresses Btk (Rattus norvegicus, UniProt Q5S255). Nature of the assay: Inhibition of Btk activity in blood (in vitro B cell activation assay, CD86, rat whole blood). The assay is classed as cell-based. The note with it: Lewis rat whole blood diluted to 50%, anti-rat IgM + rat IL-4, 24 hours, CD86 on CD45RA positive B cells. Here is the method: Alternatively, the inhibitory activity of the present compounds in blood was assessed in the following in vitro B cell activation assay. Whole blood was collected from the abdominal aorta of anaesthetized adult male Lewis rats and was anticoagulated with 100 U/ml sodium heparin. Blood was then diluted to 50% with high glucose DMEM (Amimed) supplemented with […] penicillin, […], 2 mM L-glutamin, 50 mg/ml dextran 40 and 5% FCS (Fetaclone I, Gibco). Then, 190 μl prediluted blood was mixed in 96 well U-bottomed microtiter plates (Nunc) with 10 μl of serial dilutions of test compounds in DMSO. […] Activation of B cells was measured by flow cytometry after staining for the B cell subset with PE-Cy5-labeled anti-ratCD45RA (Beckton-Dickinson) and for the activation marker CD86 (PE-labeled anti-rat CD86 (Beckton-Dickinson). All staining procedures were performed at RT for 30 min in the dark in 96-deep well V-bottomed microtiter plates (Corning) with BD Lysing Solution (Beckton-Dickinson).
Cytometric data was acquired on a FACScalibur flow cytometer (BD Biosciences) and the subpopulation of lymphocytes were gated according to size and granularity and further analyzed for expression of CD45RA and the activation markers. Data for the inhibition of B cell activation were calculated from the percentage of cells positively stained for activation markers within the CD45RA positive population.

Sequence of Btk (Q5S255 1-660): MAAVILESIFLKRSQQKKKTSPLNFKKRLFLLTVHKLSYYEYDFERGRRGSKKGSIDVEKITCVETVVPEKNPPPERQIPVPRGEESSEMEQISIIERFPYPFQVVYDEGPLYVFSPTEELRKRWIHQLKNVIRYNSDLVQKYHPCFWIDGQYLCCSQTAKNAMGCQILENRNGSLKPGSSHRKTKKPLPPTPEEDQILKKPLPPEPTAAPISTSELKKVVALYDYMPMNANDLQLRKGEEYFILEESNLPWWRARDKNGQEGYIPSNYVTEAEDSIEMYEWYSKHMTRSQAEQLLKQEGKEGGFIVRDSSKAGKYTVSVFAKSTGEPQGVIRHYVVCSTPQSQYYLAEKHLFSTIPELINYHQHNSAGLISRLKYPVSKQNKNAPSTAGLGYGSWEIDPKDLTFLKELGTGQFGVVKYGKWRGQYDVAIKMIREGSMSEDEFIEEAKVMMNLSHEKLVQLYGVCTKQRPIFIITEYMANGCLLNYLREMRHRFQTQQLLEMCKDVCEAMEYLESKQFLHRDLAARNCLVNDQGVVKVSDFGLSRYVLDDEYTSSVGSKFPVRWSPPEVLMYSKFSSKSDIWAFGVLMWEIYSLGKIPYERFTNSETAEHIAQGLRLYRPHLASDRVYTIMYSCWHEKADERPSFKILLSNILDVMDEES
Sequence of full-length human recombinant BTK (Q06187 whole entry): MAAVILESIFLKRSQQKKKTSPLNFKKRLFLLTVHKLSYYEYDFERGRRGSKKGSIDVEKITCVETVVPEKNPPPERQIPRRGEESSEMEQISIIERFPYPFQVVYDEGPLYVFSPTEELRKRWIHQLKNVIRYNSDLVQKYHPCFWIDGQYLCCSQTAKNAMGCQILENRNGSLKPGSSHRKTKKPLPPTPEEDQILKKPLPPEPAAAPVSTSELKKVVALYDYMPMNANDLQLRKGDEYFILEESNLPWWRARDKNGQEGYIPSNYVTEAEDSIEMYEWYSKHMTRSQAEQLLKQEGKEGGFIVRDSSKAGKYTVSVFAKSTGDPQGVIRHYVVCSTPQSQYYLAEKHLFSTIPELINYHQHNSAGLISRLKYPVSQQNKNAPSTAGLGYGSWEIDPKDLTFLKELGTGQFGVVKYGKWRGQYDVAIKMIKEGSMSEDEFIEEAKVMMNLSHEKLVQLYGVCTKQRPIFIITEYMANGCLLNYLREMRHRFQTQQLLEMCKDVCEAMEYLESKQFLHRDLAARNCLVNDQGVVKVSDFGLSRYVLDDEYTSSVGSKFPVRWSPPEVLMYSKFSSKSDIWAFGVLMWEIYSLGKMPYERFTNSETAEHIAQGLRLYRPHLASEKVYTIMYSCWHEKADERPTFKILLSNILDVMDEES

What is called IC50 is the point on the concentration scale where inhibition reaches its midpoint. On to `C=CC(=O)N1C[C@H](F)C[C@H]1COc1c(N)ncnc1-c1cc(F)cc(NC(=O)c2ccc(C3CC3)cc2F)c1C` [Example 31, N-(3-(5-(((2S,4R)-1-Acryloyl-4-fluoropyrrolidin-2-yl)methoxy)-6-aminopyrimidin-4-yl)-5-fluoro-2-methylphenyl)-4-cyclopropyl-2-fluorobenzamide], for which the half-inhibitory concentration (IC50) in assay [1] was 2 nM; in assay [2] it was 25 nM.

Turning to `C=CC(=O)N(C)[C@@H](C)COc1c(N)ncnc1-c1cc(F)cc(NC(=O)c2ccc(C3CC3)cc2F)c1C` [Example 19, (S)—N-(3-(6-Amino-5-(2-(N-methylacrylamido)propoxy)pyrimidin-4-yl)-5-fluoro-2-methylphenyl)-4-cyclopropyl-2-fluorobenzamide], the results for the IC50 in assay [1] and in assay [2] were 16 nM and 136 nM, respectively.

Regarding `C=CC(=O)N1C[C@H](OC)C[C@H]1COc1c(N)ncnc1-c1cc(F)cc(NC(=O)c2ccc(C3CC3)cc2F)c1C` [Example 26, N-(3-(5-(((2S,4R)-1-Acryloyl-4-methoxypyrrolidin-2-yl)methoxy)-6-aminopyrimidin-4-yl)-5-fluoro-2-methylphenyl)-4-cyclopropyl-2-fluorobenzamide], the IC50 is 0.4 nM in assay [1] and 51 nM in assay [2].

With `C=CC(=O)N1CC[C@H]1COc1c(N)ncnc1-c1cc(F)cc(N2CCc3cc(C4CC4)ccc3C2=O)c1CO` [Example 35, (S)-2-(3-(5-((1-Acryloylazetidin-2-yl)methoxy)-6-aminopyrimidin-4-yl)-5-fluoro-2-(hydroxymethyl)phenyl)-6-cyclopropyl-3,4-dihydroisoquinolin-1(2H)-one], the figures for the 50% inhibitory concentration (IC50) in assay [1] and in assay [2] were 2 nM and 72 nM, respectively.

With `C=CC(=O)NC1(COc2c(N)ncnc2-c2cc(F)cc(NC(=O)c3ccc(C4CC4)cc3F)c2C)CC1` [Example 16, N-(3-(5-((1-Acrylamidocyclopropyl)methoxy)-6-aminopyrimidin-4-yl)-5-fluoro-2-methylphenyl)-4-cyclopropyl-2-fluorobenzamide], the values for the concentration for half-maximal inhibition (IC50) in assay [1] and in assay [2] were 15 nM and 558 nM, respectively.

Turning to `C=CC(=O)N[C@@H](C)COc1c(N)ncnc1-c1cc(F)cc(NC(=O)c2ccc(C3CC3)cc2F)c1C` [Example 17, (S)—N-(3-(5-(2-Acrylamidopropoxy)-6-aminopyrimidin-4-yl)-5-fluoro-2-methylphenyl)-4-cyclopropyl-2-fluorobenzamide], the IC50 worked out at 5 nM in assay [1] and 246 nM in assay [2].

Consider `C=CC(=O)N1CCC[C@@H](COc2c(N)ncnc2-c2cc(F)cc(NC(=O)c3ccc(C4CC4)cc3F)c2C)C1` [Example 37, (R)—N-(3-(5-((1-Acryloylpiperidin-3-yl)methoxy)-6-aminopyrimidin-4-yl)-5-fluoro-2-methylphenyl)-4-cyclopropyl-2-fluorobenzamide], for which the IC50 is 32 nM in assay [1] and 968 nM in assay [2].

The values are drawn from US9512084B2, “Amino pyrimidine derivatives” (Novartis AG, priority 2013, dated 2016).
